Test results: article PMC6204753, “Non-native autoinducer analogs capable of modulating the SdiA quorum sensing receptor in Salmonella enterica serovar Typhimurium” (Beilstein Journal of Organic Chemistry, 2018)
Entries after “also recorded” stand apart in the source; their conditions may differ. Read-outs that look alike come from different tables or passages of the source. Marks after values point to notes of the source that are not given here.

Assays:
Type in all cases: cell-based
SdiA [1] = molecular target: T1, SdiA (Salmonella enterica subsp. enterica serovar Typhimurium, UniProt O66040); test: S. Typhimurium-pJNS25 SdiA reporter, competitive antagonism against 10 nM L-OOHL; conditions: for inhibition at 1 µM: read-out: Antagonism 1 μM Inhibition (%); for inhibition at 100 µM: read-out: Antagonism 100 μM Inhibition (%); for Emax: 100% minus lowest % activity in presence of 10 nM L-OOHL (2); for IC50: against 10 nM L-OOHL (EC90)
T1 sequence (O66040 entry or part of it): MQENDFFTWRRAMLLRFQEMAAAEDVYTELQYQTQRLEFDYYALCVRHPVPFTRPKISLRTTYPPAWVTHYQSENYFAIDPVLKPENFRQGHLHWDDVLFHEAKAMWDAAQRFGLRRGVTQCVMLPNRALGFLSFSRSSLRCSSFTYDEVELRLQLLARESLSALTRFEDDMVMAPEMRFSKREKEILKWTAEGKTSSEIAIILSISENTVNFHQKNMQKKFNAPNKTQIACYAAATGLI
Description: (§1) Biological assays for SdiA activity. Cell-based reporter strains that rely on detecting the transcriptional activity of LuxR-type receptors are commonly used to assess the activity of exogenous ligands. We used the S. Typhimurium-pJNS25 reporter strain constructed by Smith and Ahmer and also used by Janssens et al. to examine SdiA activity. This strain naturally produces SdiA and contains a reporter plasmid with the promoter region for srgE fused to the luxABCDE operon of V. fischeri (see Experimental section for details of all strains and plasmids). SdiA activity is thus reported by the production of luciferase and resulting bioluminescence. We also prepared an SdiA reporter in E. coli (JLD271-pJN105SE-pSC11SE) to examine S. Typhimurium SdiA activity in an alternate background and with a different reporter gene output. […] This reporter construct uses an arabinose inducible promoter to produce S. Typhimurium SdiA and the promoter region for srgE fused to lacZ to report SdiA activity. SdiA activity is then measured using standard β-galactosidase assays. In both reporter strains, signal was normalized to the difference between the positive control (10 μM OOHL) and the negative control (1% DMSO; no compound).
(§2) Salmonella SdiA reporter assay. S. Typhimurium-pJNS25 was grown 16–18 h overnight in LB, diluted 1:100 in fresh LB medium, and then incubated for 6 h at 37 °C with shaking at 200 rpm in the presence of compounds (1% DMSO). […] All compounds were screened at 100 μM and 1 μM in triplicate in agonism and antagonism assays. […] Dose–response analyses were performed by preparing dilutions of compounds in DMSO and testing each concentration in the agonism or antagonism assays. Competition dose–response assays (data in Figure 5) were performed in the same manner as the antagonism assays, except instead of OOHL being added to the subculture, the antagonist being tested was added. Non-linear regression curve fits were generated using GraphPad Prism software (version 6) using variable slope (four parameter) dose–response analysis.

SdiA [2] = molecular target: T1, SdiA; test: S. Typhimurium-pJNS25 SdiA reporter, agonism (luminescence); conditions: for Emax: read-out: activation (%); for EC50: agonism dose–response; for fold increase: potency of thiolactone over corresponding lactone (EC50 ratio); for activity in the SdiA reporter assay (in words): S. Typhimurium reporter
Description: as §1, §2

S. Typhimurium SdiA = S. Typhimurium SdiA (Salmonella enterica subsp. enterica serovar Typhimurium, UniProt O66040); test: E. coli JLD271-pJN105SE-pSC11SE SdiA reporter, antagonism (β-galactosidase); conditions: E. coli reporter; against OOHL at its EC50 (1.5 nM); NA = not active; 0.0015 µM
Chain of S. Typhimurium SdiA (O66040 entry or part of it): as above
Description: Biological assays for SdiA activity. Cell-based reporter strains that rely on detecting the transcriptional activity of LuxR-type receptors are commonly used to assess the activity of exogenous ligands. We used the S. Typhimurium-pJNS25 reporter strain constructed by Smith and Ahmer and also used by Janssens et al. to examine SdiA activity. This strain naturally produces SdiA and contains a reporter plasmid with the promoter region for srgE fused to the luxABCDE operon of V. fischeri (see Experimental section for details of all strains and plasmids). SdiA activity is thus reported by the production of luciferase and resulting bioluminescence. We also prepared an SdiA reporter in E. coli (JLD271-pJN105SE-pSC11SE) to examine S. Typhimurium SdiA activity in an alternate background and with a different reporter gene output. E. coli JLD271 is the sdiA mutant of K-12 E. coli. This reporter construct uses an arabinose inducible promoter to produce S. Typhimurium SdiA and the promoter region for srgE fused to lacZ to report SdiA activity. SdiA activity is then measured using standard β-galactosidase assays. In both reporter strains, signal was normalized to the difference between the positive control (10 μM OOHL) and the negative control (1% DMSO; no compound).
E. coli SdiA reporter assay. The β-galactosidase assay using the E. coli SdiA reporter was performed as reported previously, with minor modifications. The reporter strain was grown 16–18 h overnight in LB, diluted 1:10 in fresh LB medium, and incubated at 37 °C with shaking at 200 rpm until it reached an OD600 of 0.25. Expression of SdiA was induced by the addition of 4 mg/mL arabinose, and the culture was incubated in the presence of compounds (1% DMSO) for 4 h at 37 °C with shaking at 200 rpm. […] A 50 μL aliquot of culture from each well was lysed in 200 μL of Z-buffer and 8 μL of chloroform, and a 100 μL aliquot of this lysate was incubated with 25 μL of 4 mg/mL ONPG for 20 min at 30 °C before reading absorption at 420 nm and 550 nm using a Biotek Synergy 2 plate reader. Non-linear regression curve fits were generated using GraphPad Prism software (version 6) using variable slope (four parameter) dose–response analysis.

[3] = 1 μM compound, average ± STD, change in activity from 10 nM 2 (OOHL)
[4] = 100 μM compound, average ± STD, change in activity from 10 nM 2 (OOHL)
[5] = maximal inhibition, read-out: inhibition (%)
[6] = maximal activation of the antagonists (partial agonism), Table 3
[7] = maximal activity (efficacy) from agonism dose–response, 10 μM OOHL = 100%, DMSO = 0%

SMILES	inhibition at 1 µM (SdiA [1]; [3])	inhibition at 100 µM (SdiA [1]; [4])	EC50 (SdiA [2]; read-out: EC50)	Emax (SdiA [2]; [7])	also measured
CSc1ccc(CC(=O)N[C@H]2CCOC2=O)cc1 [E6]	25 ± 16%	44 ± 13%			Emax (SdiA [1]; [5]): 49%; Emax (SdiA [2]; [6]): 74%
O=C(Cc1ccc(I)cc1)N[C@H]1CCOC1=O [C10]					inhibition at 1 µM (SdiA [1]): 28 ± 6%; inhibition at 100 µM (SdiA [1]): 27 ± 13%; EC50 (SdiA [2]): 47.2 nM; Emax (SdiA [2]): 67%
Cc1cccc(OCC(=O)N[C@H]2CCOC2=O)c1 [E16]	-2 ± 8%	-4 ± 5%	43.3 nM	100%	
[N-]=[N+]=NCCCCCCCCCCCC(=O)N[C@H]1CCOC1=O [Az-11]	-1 ± 17%	-35 ± 6%			EC50 (SdiA [2]): 125 nM; activation (%) (SdiA [2]; [7]): fully agonize; Emax (SdiA [2]): 110%
CCCCCCC(CCCC)C(=O)N[C@H]1CCOC1=O (stereo partly drawn) [S2]	48 ± 3%	2 ± 11%			Emax (SdiA [1]; [5]): 32%; Emax (SdiA [2]; [6]): 63%
CCCCCCCC(=O)N[C@H]1CCSC1=O [F5]	3 ± 6%	0%	2.28 nM	79%	fold increase (SdiA [2]): 8.12
Cc1ccc(OCC(=O)N[C@H]2CCOC2=O)cc1 [E15]	-3 ± 5%	-17 ± 7%	33 nM	98%	
O=C(Cc1cccc([N+](=O)[O-])c1)N[C@H]1CCOC1=O [C14]	0%	-17 ± 9%	28.3 nM		
CCCCCC(=O)CC(=O)N[C@H]1CCSC1=O [F2]	-19 ± 12%	-19 ± 15%	0.7 nM	119%	fold increase (SdiA [2]): 1.47^c
CCCCCCCC(=O)CC(=O)N[C@H]1CCOC1=O [A7]	-4 ± 19%	-2 ± 10%	26.6 nM	85%	
CCCCCCCCCCCCOc1ccc(C(=O)N[C@H]2CCOC2=O)cc1 [R9]	22 ± 10%	42 ± 13%			Emax (SdiA [1]; [5]): 63%; Emax (SdiA [2]; [6]): 6%
N#Cc1cccc(CC(=O)N[C@H]2CCOC2=O)c1 [E5]	18 ± 8%	-8 ± 4%	62.2 nM	73%	
O=C(CCCOc1cccc(Br)c1)N[C@H]1CCSC1=O [compound 16, reference compound]	8 ± 14%	84 ± 6%			IC50 (SdiA [1]): 45 µM; Emax (SdiA [1]; read-out: inhibition (%), maximal inhibition): 89%; inhibition (%) (S. Typhimurium SdiA): failed to display antagonistic activity; also recorded: did not display any activity; activity in the SdiA reporter assay (in words) (SdiA [2]): multimodal, or non-monotonic; Emax (SdiA [2]): 48%
O=C(Cc1cccc(Cl)c1)N[C@H]1CCOC1=O [C6]	9 ± 16%	-20 ± 6%	51.9 nM	95%	
O=C(Cc1ccccc1Br)N[C@H]1CCOC1=O [C9]	9 ± 8%	-48 ± 13%	63.5 nM	103%	
O=C(CCc1cccc(I)c1)N[C@H]1CCOC1=O [E33]	20 ± 6%	38 ± 10%			IC50 (SdiA [1]): 9.64 µM; Emax (SdiA [1]; [5]): 19%; Emax (SdiA [2]; [6]): 67%
O=C(CC1CCCC1)N[C@H]1CCOC1=O [B12]	7 ± 7%	14 ± 9%	54.7 nM	93%	
O=C(Cc1cccc([N+](=O)[O-])c1)N[C@H]1CCSC1=O [F11]	-11 ± 7%	-16 ± 13%	2.47 nM	97%	fold increase (SdiA [2]): 11.5
CCOC(=O)CNC(=O)Cc1ccc(OC)cc1 [F47]	3 ± 14%	36 ± 10%			Emax (SdiA [1]; [5]): 42%; Emax (SdiA [2]; [6]): 61%
CCCCCCCC(=O)N[C@H]1CCOC1=O [A3]			18.1 nM		Antagonism 1 μM Inhibition (%) (SdiA [1]; [3]): 10 ± 8%; Antagonism 100 μM Inhibition (%) (SdiA [1]; [4]): 13 ± 14%
O=C(Cc1cccc(Br)c1)N[C@H]1CCOC1=O [C8]	21 ± 10%	-22 ± 9%	19.1 nM	96%	
O=C(COc1ccc(I)cc1)N[C@H]1CCSC1=O [RN22]	-4 ± 9%	3 ± 9%	6.08 nM	93%	fold increase (SdiA [2]): 1.71^c
CCCCCC(=O)N[C@H]1CCOC1=O [A2]	15 ± 4%	3 ± 1%	20.9 nM	81%	
CCCC(=O)N[C@H]1CCOC1=O [A1, reference compound]			578 nM		Antagonism 1 μM Inhibition (%) (SdiA [1]; [3]): 7 ± 5%; Antagonism 100 μM Inhibition (%) (SdiA [1]; [4]): -10 ± 11%; activation (%) (SdiA [2]; [7]): 100%
O=C(Oc1c(Br)cc(Br)cc1CNC(=O)c1ccccc1[N+](=O)[O-])c1ccccc1Cl [19R, reference compound]	43 ± 10%	38 ± 11%			Emax (SdiA [1]; [5]): 44%; Emax (SdiA [2]; [6]): 40%
O=C(Cc1cccc(I)c1)N[C@H]1CCOC1=O [C11]	15 ± 11%	-4 ± 2%	20.6 nM	90%	
CCCCCCCC(=O)OCC(O)CO (racemic) [compound 23, 1-octanoyl-rac-glycerol, reference compound]	8 ± 14%	12 ± 4%			activity in the SdiA reporter assay (in words) (SdiA [2]): no agonism; also recorded: no activity
